Earlier results as cited in patent publication US8916356B2, “Measuring thrombin activity in whole blood” (Synapse B.V., priority 2005, dated 2014).

B1: abciximab (antibody, chains of the INN, looked up, V domains shown)
VH: EVQLQQSGTVLARPGASVKMSCEASGYTFTNYWMHWVKQRPGQGLEWIGAIYPGNSDTSYIQKFKGKAKLTAVTSTTSVYMELSSLTNEDSAVYYCTLYDGYYVFAYWGQGTLVTVSA
VL: EIVLTQSPVTLSVTPGDSVSLSCRASRDISNNLHWFQQTSHESPRLLIKYASQSMSGIPSRFSGSGSGTDFTLSINSVETEDFGMYFCQQTNSWPYTFGGGTKLEIK
modifications: Fab
notes: antiplatelet agent

Assays:
[1] = tested on: thrombin generation in platelet rich plasma (or whole blood); conditions: literature refs 13-16
[2] = literature ref 17

Molecule | effect on thrombin generation [1] | effect on venous thrombosis [2]
CCCCS(=O)(=O)N[C@@H](Cc1ccc(OCCCCC2CCNCC2)cc1)C(=O)O [MK383] | inhibit thrombin generation | 
CC(=O)Oc1ccccc1C(=O)O [aspirin] | inhibit thrombin generation | prevents venous thrombosis
COC(=O)[C@H](c1ccccc1Cl)N1CCc2sccc2C1 [clopidogrel] | inhibit thrombin generation | 
B1 | inhibit thrombin generation | 
